Holding throughout (assay): Greenhouse herbicidal activity assay, post-emergence
Common to all, as to assay type: in vivo

For experiment [1], the system named is Echinochloa crusgalli. Particulars: Post-emergence test, rate 150 g a.i./hm^2, grade by fresh weight inhibition rate; for pest or weed control at 150 g/ha: Echinochloa crus-galli, read-out: Control efficacy grade, Echinochloa crusgalli. An outline of the steps: (§1)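 Graded A (≥80%) to E (<20%) by fresh weight inhibition, read 14-21 days after spraying. Plants were pot-grown in a growth chamber and received foliar application at the 3-6 leaf stage, being air-dried and returned to the chamber afterwards.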

Experiment [2] has as its system Digitaria sanguinalis. Particulars: Post-emergence test, rate 150 g a.i./hm^2, grade by fresh weight inhibition rate; for pest or weed control at 150 g/ha: Digitaria sanguinalis, read-out: Control efficacy grade, Digitaria sanguinalis. In outline: as §1
Experiment [3] has as its system Eclipta prostrata. To be noted: Post-emergence test, rate 150 g a.i./hm^2, grade by fresh weight inhibition rate; for pest or weed control at 150 g/ha: Eclipta prostrata, read-out: Control efficacy grade, Eclipta prostrata. An outline of the steps: as §1
For experiment [4], the system named is Leptochloa chinensis. Particulars: Post-emergence test, rate 150 g a.i./hm^2, grade by fresh weight inhibition rate; for pest or weed control at 150 g/ha: Dinebra chinensis, read-out: Control efficacy grade, Leptochloa chinensis. In outline:
as §1

For experiment [5], the system named is Cyperus iria. Particulars: Post-emergence test, rate 150 g a.i./hm^2, grade by fresh weight inhibition rate; for pest or weed control at 150 g/ha: Cyperus iria, read-out: Control efficacy grade, Cyperus iria. An outline of the steps:
as §1

Molecules are shown by their SMILES.

This is an account of results in patent US20250223268A1, “4-Methylsulfonylbenzamide Compound, Preparation Method, Herbicidal Composition And Use” (Jiangsu Flag Chemical Industry Co., Ltd., priority 2022, published 2025).

Consider `CS(=O)(=O)c1ccc(C(=O)Nc2nnco2)c(Cl)c1SCC(F)(F)F` [Compound 3-323], for which the “Control efficacy grade, Echinochloa crusgalli” value in experiment [1] was “A (Fresh weight inhibition rate≥80% to 100%)”. For the same compound, the “Control efficacy grade, Digitaria sanguinalis” value in experiment [2] was “A (Fresh weight inhibition rate≥80% to 100%)”. Further, the “Control efficacy grade, Eclipta prostrata” value in experiment [3] is “A (Fresh weight inhibition rate≥80% to 100%)”. For the same compound, the “Control efficacy grade, Leptochloa chinensis” value in experiment [4] is “A (Fresh weight inhibition rate≥80% to 100%)”. For the same compound, the “Control efficacy grade, Cyperus iria” value in experiment [5] is recorded as “A (Fresh weight inhibition rate≥80% to 100%)”.

For the compound `CS(=O)(=O)c1ccc(C(=O)Nc2nnco2)c(Cl)c1SCC(F)F` [Compound 3-328], the “Control efficacy grade, Echinochloa crusgalli” value in experiment [1] was “A (Fresh weight inhibition rate≥80% to 100%)”. Moreover, the “Control efficacy grade, Digitaria sanguinalis” value in experiment [2] is “A (Fresh weight inhibition rate≥80% to 100%)”. In addition, in experiment [3], the “Control efficacy grade, Eclipta prostrata” value was “A (Fresh weight inhibition rate≥80% to 100%)”. In addition, in experiment [4], the “Control efficacy grade, Leptochloa chinensis” value is listed as “A (Fresh weight inhibition rate≥80% to 100%)”. In addition, the “Control efficacy grade, Cyperus iria” value in experiment [5] was “A (Fresh weight inhibition rate≥80% to 100%)”.

Take `C=CCSc1c(S(C)(=O)=O)ccc(C(=O)Nc2nnco2)c1Cl` [Compound 3-338]: the “Control efficacy grade, Echinochloa crusgalli” value in experiment [1] is listed as “A (Fresh weight inhibition rate≥80% to 100%)”. Moreover, the “Control efficacy grade, Digitaria sanguinalis” value in experiment [2] was “C (Fresh weight inhibition rate≥40% to <60%)”. Also, the “Control efficacy grade, Eclipta prostrata” value in experiment [3] is listed as “A (Fresh weight inhibition rate≥80% to 100%)”. In addition, the “Control efficacy grade, Leptochloa chinensis” value in experiment [4] is “A (Fresh weight inhibition rate≥80% to 100%)”. Also, in experiment [5], the “Control efficacy grade, Cyperus iria” value is reported as “A (Fresh weight inhibition rate≥80% to 100%)”.

As to `CS(=O)(=O)c1ccc(C(=O)Nc2nnco2)c(Cl)c1SCCC#N` [Compound 3-373], the “Control efficacy grade, Echinochloa crusgalli” value in experiment [1] is reported as “A (Fresh weight inhibition rate≥80% to 100%)”. Further, the “Control efficacy grade, Digitaria sanguinalis” value in experiment [2] is “A (Fresh weight inhibition rate≥80% to 100%)”. The “Control efficacy grade, Eclipta prostrata” value in experiment [3] is reported as “A (Fresh weight inhibition rate≥80% to 100%)”. Moreover, the “Control efficacy grade, Leptochloa chinensis” value in experiment [4] is on record as “A (Fresh weight inhibition rate≥80% to 100%)”. Moreover, the “Control efficacy grade, Cyperus iria” value in experiment [5] is “A (Fresh weight inhibition rate≥80% to 100%)”.

For `CCCSc1c(S(C)(=O)=O)ccc(C(=O)Nc2nnc(CC)o2)c1Cl` [Compound 3-383], the “Control efficacy grade, Echinochloa crusgalli” value in experiment [1] is “A (Fresh weight inhibition rate≥80% to 100%)”. Moreover, in experiment [2], the “Control efficacy grade, Digitaria sanguinalis” value is on record as “B (Fresh weight inhibition rate≥260% to <80%)”. In addition, in experiment [3], the “Control efficacy grade, Eclipta prostrata” value is “A (Fresh weight inhibition rate≥80% to 100%)”. Moreover, the “Control efficacy grade, Leptochloa chinensis” value in experiment [4] is recorded as “B (Fresh weight inhibition rate≥260% to <80%)”. Also, the “Control efficacy grade, Cyperus iria” value in experiment [5] is on record as “A (Fresh weight inhibition rate≥80% to 100%)”.

On to `CCc1nnc(NC(=O)c2ccc(S(C)(=O)=O)c([S+]([O-])C(C)C)c2Cl)o1` (centres unmarked) [Compound 3-389, 2-chloro-N-(5-ethyl-1,3,4-oxadiazol-2-yl)-3-(isopropylsulfinyl)-4-(methylsulfonyl)benzamide], for which the pest or weed control at 150 g/ha in experiment [1], in experiment [2], in experiment [3], in experiment [4] and in experiment [5] was 80 to 100% throughout.

In the case of `CCc1nnc(NC(=O)c2ccc(S(C)(=O)=O)c(SCC3CC3)c2Cl)o1` [Compound 3-414], the “Control efficacy grade, Echinochloa crusgalli” value in experiment [1] was “A (Fresh weight inhibition rate≥80% to 100%)”. Further, the “Control efficacy grade, Digitaria sanguinalis” value in experiment [2] was “A (Fresh weight inhibition rate≥80% to 100%)”. Moreover, the “Control efficacy grade, Eclipta prostrata” value in experiment [3] is on record as “A (Fresh weight inhibition rate≥80% to 100%)”. Moreover, in experiment [4], the “Control efficacy grade, Leptochloa chinensis” value was “A (Fresh weight inhibition rate≥80% to 100%)”. In experiment [5], the “Control efficacy grade, Cyperus iria” value is “A (Fresh weight inhibition rate≥80% to 100%)”.

Take `CCc1nnc(NC(=O)c2ccc(S(C)(=O)=O)c(SC3CC3)c2Cl)o1` [Compound 3-419]: in experiment [1], the “Control efficacy grade, Echinochloa crusgalli” value is given as “A (Fresh weight inhibition rate≥80% to 100%)”. Besides, in experiment [2], the “Control efficacy grade, Digitaria sanguinalis” value was “A (Fresh weight inhibition rate≥80% to 100%)”. For the same compound, in experiment [3], the “Control efficacy grade, Eclipta prostrata” value is reported as “A (Fresh weight inhibition rate≥80% to 100%)”. Also, the “Control efficacy grade, Leptochloa chinensis” value in experiment [4] is “A (Fresh weight inhibition rate≥80% to 100%)”. Also, the “Control efficacy grade, Cyperus iria” value in experiment [5] is listed as “A (Fresh weight inhibition rate≥80% to 100%)”.

In the case of `CCc1nnc(NC(=O)c2ccc(S(C)(=O)=O)c(SC3CCC3)c2Cl)o1` [Compound 3-424], in experiment [1], the “Control efficacy grade, Echinochloa crusgalli” value is “A (Fresh weight inhibition rate≥80% to 100%)”. Besides, the “Control efficacy grade, Digitaria sanguinalis” value in experiment [2] is “A (Fresh weight inhibition rate≥80% to 100%)”. Also, in experiment [3], the “Control efficacy grade, Eclipta prostrata” value was “A (Fresh weight inhibition rate≥80% to 100%)”. The “Control efficacy grade, Leptochloa chinensis” value in experiment [4] is “A (Fresh weight inhibition rate≥80% to 100%)”. Besides, the “Control efficacy grade, Cyperus iria” value in experiment [5] is listed as “A (Fresh weight inhibition rate≥80% to 100%)”.

For the compound `CCc1nnc(NC(=O)c2ccc(S(C)(=O)=O)c(SCC(F)(F)F)c2Cl)o1` [Compound 3-439], the “Control efficacy grade, Echinochloa crusgalli” value in experiment [1] is reported as “A (Fresh weight inhibition rate≥80% to 100%)”. In experiment [2], the “Control efficacy grade, Digitaria sanguinalis” value is listed as “A (Fresh weight inhibition rate≥80% to 100%)”. The “Control efficacy grade, Eclipta prostrata” value in experiment [3] is “A (Fresh weight inhibition rate≥80% to 100%)”. Further, in experiment [4], the “Control efficacy grade, Leptochloa chinensis” value is on record as “A (Fresh weight inhibition rate≥80% to 100%)”. The “Control efficacy grade, Cyperus iria” value in experiment [5] is on record as “A (Fresh weight inhibition rate≥80% to 100%)”.

Turning to `CCC[S+]([O-])c1c(S(C)(=O)=O)ccc(C(=O)Nc2nnc(C(C)C)o2)c1Cl` (centres unmarked) [Compound 3-500, 2-chloro-N-(5-isopropyl-1,3,4-oxadiazol-2-yl)-4-(methylsulfonyl)-3-(propylsulfinyl)benzamide], the pest or weed control at 150 g/ha in experiment [1], in experiment [2], in experiment [3], in experiment [4] and in experiment [5] was 80 to 100% in each case.

For `CS(=O)(=O)c1ccc(C(=O)Nc2nnc(C3CC3)o2)c(Cl)c1SC1CC1` [Compound 3-651], the “Control efficacy grade, Echinochloa crusgalli” value in experiment [1] was “A (Fresh weight inhibition rate≥80% to 100%)”. The “Control efficacy grade, Digitaria sanguinalis” value in experiment [2] is given as “A (Fresh weight inhibition rate≥80% to 100%)”. Moreover, the “Control efficacy grade, Eclipta prostrata” value in experiment [3] is listed as “A (Fresh weight inhibition rate≥80% to 100%)”. Further, in experiment [4], the “Control efficacy grade, Leptochloa chinensis” value is recorded as “A (Fresh weight inhibition rate≥80% to 100%)”. In addition, the “Control efficacy grade, Cyperus iria” value in experiment [5] is reported as “A (Fresh weight inhibition rate≥80% to 100%)”.

For the compound `Cc1nonc1NC(=O)c1ccc(S(C)(=O)=O)c([S+]([O-])CC2CC2)c1Cl` (centres unmarked) [Compound 4-33, 2-chloro-3-((cyclopropylmethyl)sulfinyl)-N-(4-methyl-1,2,5-oxadiazol-3-yl)-4-(methylsulfonyl)benzamide], the pest or weed control at 150 g/ha in experiment [1], in experiment [2], in experiment [3], in experiment [4] and in experiment [5] was 80 to 100% in each case.
